# Source: article PMC6838683, “Discovery of Human Signaling Systems: Pairing Peptides to G Protein-Coupled Receptors” (Cell, 2019)
# Positions of bridges follow the written chain, without caps; N, C: chain ends. Residues, ends and D or L forms follow the SMILES beside them. No end group written: not given here.
# Legend:
# GPR139 [1] = biological target: T1, GPR139 (Homo sapiens, UniProt Q6DWJ6); experiment: IP1 accumulation; assay type: cell-based; conditions: mean, SEM and n
# T1 construct: hIL-2Ra signal peptide (N); expressed in transfected cells
# T1 sequence (Q6DWJ6 2-353 limits assumed): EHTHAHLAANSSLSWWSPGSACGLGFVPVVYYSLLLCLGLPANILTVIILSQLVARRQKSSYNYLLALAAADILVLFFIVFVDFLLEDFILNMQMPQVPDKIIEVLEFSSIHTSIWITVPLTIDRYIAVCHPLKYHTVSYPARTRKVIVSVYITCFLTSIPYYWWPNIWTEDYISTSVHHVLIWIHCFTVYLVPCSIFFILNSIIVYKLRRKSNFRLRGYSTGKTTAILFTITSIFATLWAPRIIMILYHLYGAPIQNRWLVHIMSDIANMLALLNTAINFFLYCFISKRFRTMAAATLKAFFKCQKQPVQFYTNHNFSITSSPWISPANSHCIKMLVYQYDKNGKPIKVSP
# Source text: Supplement mmc7.xlsx, sheet "Peptide validation data" | column: Emax; pEC50
# GPR139 [2] = biological target: T1, GPR139; experiment: β-arrestin recruitment (Tango), validation; assay type: cell-based
# Source text: (§1) Supplement mmc7.xlsx, sheet "Peptide validation data" | column: Comment
# GPR139 [3] = biological target: T1, GPR139; experiment: Repeat of proposed literature pairing (mass redistribution and/or internalization); assay type: cell-based; conditions: GPR139
# Source text: DMR assays provide a single integrated readout of ligand-dependent cellular response, utilizing an optical biosensor in specialized microplates to detect wavelength shifts of reflected light as it passes through the biosensor and the lower portion of the cell (∼150-200 nm). As a signal pathway agnostic approach, DMR assays are well-suited to the study of GPCRs ([Fang et al., 2008], [Schröder et al., 2011]). The mass redistribution response (Δ picometer (pm)) likely reflects a number of intracellular events, including cytoskeletal rearrangement, protein trafficking and receptor internalization. Orphan receptor-expressing cells were gently washed twice with assay buffer (HBSS with 1 mM CaCl2, 1 mM MgCl2, 20 mM HEPES, 0.01% pluronic F-68, pH 7.4) containing 0.1% DMSO and cells were equilibrated for 90 min at 22°C in the EPIC Benchtop (BT) System (Corning) to establish a stable DMR signal. After 3-5 min baseline recordings, peptides (10 μM) were added in duplicate wells using an electronic 384-channel Viaflo pipette (Integra Biosciences, Switzerland) and DMR responses were measured for 60 min at 22°C. 100 nM norepinephrine was included as an internal assay control to assess the cellular DMR response via endogenously-expressed adrenoceptors in the TREx 293 cells. Real-time data were processed using the BT to column converter MS-Excel macro (Corning) and analyzed in GraphPad Prism 7.0. DMR recordings in peptide screening experiments were buffer and solvent corrected and the area under the curve (AUC) was quantified. For subsequent validation experiments, peptides were diluted in assay buffer containing 0.1% DMSO and DMR assays were performed as above. […] Data represent mean ± standard error of the mean (SEM) from at least 3 biologically independent experiments.
# A TR-FRET real-time internalization assay was used to examine peptide-dependent changes in orphan receptor localization as described previously ([Foster and Bräuner-Osborne, 2018]). Surface-expressed SNAP-tagged receptors were labeled with a cell-impermeable luminescent terbium cryptate (100 nM SNAP Lumi4-Tb; Cisbio, France) for 1 hr at 37°C. Cells were washed to remove excess terbium and incubated with fluorescein-O-acetic acid (100 μM; Sigma Aldrich) for 5 min at 37°C. Peptides were added as for DMR assays, and internalization responses were recorded for 60 min at 37°C using an EnVision 2104 Multimode plate reader (PerkinElmer). 100 nM GLP-1 was used as a positive control for SNAP-GLP1R internalization. Real-time internalization responses were calculated based on TR-FRET (excitation 340 nm; emission 520 nm and 615 nm), and were expressed as the ratio between donor (terbium) and acceptor (fluorescein) emission. For peptide screening analysis (both DMR and internalization assays), we calculated the area under the curve from the real-time traces. […] Validation experiments for receptor internalization were performed as above. Internalization data was processed in MS-Excel and area under the curve was used to generate concentration-response curves using GraphPad Prism 7.0. Data represent mean ± standard error of the mean (SEM) from at least 3 biologically independent experiments.
# GPR55 [4] = biological target: T2, GPR55 (Homo sapiens, UniProt Q9Y2T6); experiment: Real-time receptor internalization (TR-FRET), concentration-response; assay type: cell-based; design: hIL-2Ra signal peptide (N); expressed in transfected cells; conditions: GPR55, data from single experiment (n = 1)
# How it was run: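 Doxycycline-induced (0.1 μg/ml) SNAP-tagged receptor cells had surface receptors labeled with 100 nM Lumi4-Tb for 1 h at 37°C, then 100 μM fluorescein-O-acetic acid for 5 min. Peptide-induced internalization was recorded by TR-FRET for 60 min at 37°C as donor/acceptor emission ratio. Area under the curve gave concentration-response curves; mean ± SEM, ≥3 independent experiments.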
# GPR55 [5] = biological target: T2, GPR55; experiment: β-arrestin recruitment (Tango); assay type: cell-based; design: hIL-2Ra signal peptide (N); expressed in transfected cells
# GPR55 [6] = biological target: T2, GPR55; experiment: Dynamic mass redistribution (DMR), concentration-response; assay type: cell-based; design: hIL-2Ra signal peptide (N); expressed in transfected cells; conditions: GPR55, data from single experiment (n = 1)
# How it was run: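 Doxycycline-induced (0.1 μg/ml) SNAP-tagged receptors in TREx 293 cells, equilibrated 90 min at 22°C in HEPES-buffered HBSS, pH 7.4, with 0.1% DMSO. Peptide-evoked optical wavelength shift recorded for 60 min at 22°C, buffer/solvent corrected and quantified as area under the curve. Mean ± SEM of at least 3 independent experiments.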
# GPR15 [7] = experiment: Repeat of proposed literature pairing (mass redistribution and/or internalization); assay type: cell-based, human; conditions: target GPR15; reported ligand tested on receptor-expressing cell line
# GPR15 [8] = biological target: T3, GPR15 (Homo sapiens, UniProt P49685); experiment: cAMP inhibition (Gi/o), HTRF with forskolin; assay type: cell-based; conditions: GPR15L cleavage variants versus peptide 64; Figure 5, Table S7
# T3 construct: hIL-2Ra signal peptide (N); expressed in transfected cells
# T3 sequence (P49685 2-360 limits assumed): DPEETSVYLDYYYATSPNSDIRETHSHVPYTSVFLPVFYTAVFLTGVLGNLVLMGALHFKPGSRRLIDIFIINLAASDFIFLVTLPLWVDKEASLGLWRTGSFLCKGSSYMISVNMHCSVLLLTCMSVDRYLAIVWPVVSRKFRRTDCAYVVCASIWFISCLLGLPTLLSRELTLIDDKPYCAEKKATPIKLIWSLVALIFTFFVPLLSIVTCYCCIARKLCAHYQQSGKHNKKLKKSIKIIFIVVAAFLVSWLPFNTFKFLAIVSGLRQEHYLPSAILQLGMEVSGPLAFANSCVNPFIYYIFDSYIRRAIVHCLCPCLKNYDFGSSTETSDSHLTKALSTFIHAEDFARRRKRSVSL
# GPR15 [9] = experiment: Repeat of proposed literature pairing; assay type: cell-based, human
# Source text: Supplement mmc7.xlsx, sheet "Hit summary and classification" | column: Priority orphans
# GPR176 [10] = biological target: T4, GPR176 (Homo sapiens, UniProt Q14439); experiment: Dynamic mass redistribution (DMR), validation; assay type: cell-based
# T4 construct: host or cells: HTLA cells (HEK293-derived)
# T4 sequence (Q14439 1-515): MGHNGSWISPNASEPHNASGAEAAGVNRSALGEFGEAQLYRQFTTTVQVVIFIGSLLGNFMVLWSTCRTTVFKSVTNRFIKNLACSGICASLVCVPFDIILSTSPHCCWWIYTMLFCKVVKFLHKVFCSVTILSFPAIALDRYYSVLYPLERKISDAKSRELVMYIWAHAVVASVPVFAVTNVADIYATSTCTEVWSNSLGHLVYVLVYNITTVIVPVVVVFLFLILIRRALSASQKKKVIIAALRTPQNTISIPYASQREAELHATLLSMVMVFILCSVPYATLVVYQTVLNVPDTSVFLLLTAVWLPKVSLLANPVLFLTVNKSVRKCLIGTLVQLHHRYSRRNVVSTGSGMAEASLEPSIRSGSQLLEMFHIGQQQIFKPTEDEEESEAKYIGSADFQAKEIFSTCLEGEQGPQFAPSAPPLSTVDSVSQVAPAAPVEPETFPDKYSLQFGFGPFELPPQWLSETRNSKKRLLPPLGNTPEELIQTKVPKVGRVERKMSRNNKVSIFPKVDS
# Source text: as §1
# GPR176 [11] = biological target: T4, GPR176; experiment: Real-time receptor internalization, validation; assay type: cell-based
# Source text: as §1
# [12] = tested on: 120 GPCR targets, including all available orphan receptors and 27 known class A peptide receptors; experiment: Peptide library screen, β-arrestin recruitment (Tango, fold change, 10 μM); assay type: cell-based, human; conditions: Tango; receptor(s) at which the known library peptide was active, among its known GPCR target(s); validated pairings
# How it was run: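 HTLA cells (HEK293 with tTA-dependent luciferase and β-arrestin2-TEV) transiently transfected with Tango GPCR constructs, then stimulated overnight with 10 μM peptides in 1% dFBS medium. Luciferase luminescence read after 15–20 min Bright-Glo incubation at room temperature.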
# GPR176 [13] = biological target: T4, GPR176; experiment: Real-time receptor internalization (AUC), peptide validation; assay type: cell-based; conditions: Emax and pEC50 n.d., n = 2
# Source text: as §1
# GPR176 [14] = biological target: T4, GPR176; experiment: β-arrestin recruitment (Tango), indicative pairing; assay type: cell-based; conditions: mean, n = 3
# GPR176 [15] = biological target: T4, GPR176; experiment: Dynamic mass redistribution (DMR, AUC), peptide validation; assay type: cell-based; conditions: Emax and pEC50 n.d., n = 2
# Source text: as §1
# T2 sequence (Q9Y2T6 2-319 limits assumed): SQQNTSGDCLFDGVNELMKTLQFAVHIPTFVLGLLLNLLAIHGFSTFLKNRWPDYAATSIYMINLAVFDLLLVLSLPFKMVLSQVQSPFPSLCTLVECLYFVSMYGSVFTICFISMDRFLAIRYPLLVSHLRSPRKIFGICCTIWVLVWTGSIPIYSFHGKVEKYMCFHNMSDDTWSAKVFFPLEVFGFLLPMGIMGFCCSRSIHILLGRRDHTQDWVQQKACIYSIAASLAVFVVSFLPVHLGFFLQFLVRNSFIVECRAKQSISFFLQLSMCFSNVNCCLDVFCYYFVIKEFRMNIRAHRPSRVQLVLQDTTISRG
compound,measurement,setting,value
CSCC[C@H](NC(=O)[C@H](CO)NC(=O)[C@H](Cc1ccc(O)cc1)NC(=O)[C@@H](N)CO)C(=O)N[C@@H](CCC(=O)O)C(=O)N[C@@H](Cc1c[nH]cn1)C(=O)N[C@@H](Cc1ccccc1)C(=O)N[C@@H](CCCNC(=N)N)C(=O)N[C@@H](Cc1c[nH]c2ccccc12)C(=O)NCC(=O)N[C@@H](CCCCN)C(=O)N1CCC[C@H]1C(=O)N[C@H](C(N)=O)C(C)C [Alpha-MSH (des-acetyl MSH)],"Emax, IP1",GPR139 [1],60.8 nM
same,EC50,"GPR139 [1]; read-out: pEC50, IP1 (converted)",10 µM
same,"Comment on response, Tango (fold over basal); Emax and pEC50 n.d.",GPR139 [2],No response
same,"Emax, Internalization (AUC)",GPR139 [3]; data from single experiment (n = 1),2.9
same,"Emax, DMR (peak)","GPR139 [3]; mean, SEM and n",39.5
same,EC50,"GPR139 [3]; mean, SEM and n, read-out: pEC50, DMR (peak) (converted)",36.3 nM
CC[C@H](C)[C@H](NC(=O)[C@@H](NC(=O)[C@H](Cc1c[nH]c2ccccc12)NC(=O)[C@H](CCC(=O)O)NC(=O)[C@H](CO)NC(=O)[C@@H](NC(=O)[C@H](CO)NC(=O)[C@@H]1CSSC[C@H](NC(=O)[C@H](CC(=O)O)NC(=O)[C@@H](N)CCC(=O)O)C(=O)N[C@@H](CCCCN)C(=O)N[C@@H](Cc2ccc(O)cc2)C(=O)N[C@@H]([C@@H](C)CC)C(=O)N[C@@H](C(C)C)C(=O)N[C@@H](C(C)C)C(=O)N[C@@H](CCC(=O)O)C(=O)N[C@@H](CCCCN)C(=O)N[C@@H](CCCCN)C(=O)N[C@@H](CC(=O)O)C(=O)N2CCC[C@H]2C(=O)N[C@@H](CCCCN)C(=O)N[C@@H](CCCCN)C(=O)N[C@@H]([C@@H](C)O)C(=O)N1)C(C)C)[C@@H](C)CC)C(=O)O [MSMB (91-114)] (H-EDCKYIVVEKKDPKKTCSVSEWII-OH; disulfide 3-17; N-terminus and C-terminus assumed),"Emax, Internalization (AUC)",GPR55 [4],37.6
same,EC50,"GPR55 [4]; read-out: pEC50, Internalization (AUC) (converted)",2690 nM
same,"Comment on response, Tango (fold over basal); Emax and pEC50 n.d.",GPR55 [5],No response
same,"Emax, DMR (AUC)",GPR55 [6],169875.0
same,EC50,"GPR55 [6]; read-out: pEC50, DMR (AUC) (converted)",224 nM
GPR15L: longest 57-residue cleavage variant of C10orf99 with two intramolecular disulfide bridges (KRRPAKAWSGRRTRLCCHRVPSPNSTNLKGHHVRLCKPCKLEPEPRLWVVPGALPQV; disulfide (positions not given here)),Active in DMR/internalization,GPR15 [7],Yes
same,fold improved potency over the 11-amino acid peptide at GPR15,GPR15 [8],100 fold
same,Peptide pairing for orphan receptor GPR15 (confirmed/unconfirmed),GPR15 [9],Confirmed peptide pairings for orphans
RSVNPYLQ [SCG5 (181-188)],"Comment on response, DMR (AUC); Emax and pEC50 n.d.",GPR176 [10],No response
same,"Comment on response, Internalization (AUC); Emax and pEC50 n.d.",GPR176 [11],No response
SYSMEHFRWGKPVGKKRRPVKVYPNGAEDESAEAFPLEF [Peptide 208],Active at: (activity in b-arrestin recruitment assays),[12],MC4R
same,"Comment, Internalization (AUC)",GPR176 [13],No response
same,"Emax, Tango (fold over basal)",GPR176 [14],8.0 fold over basal
same,"pEC50, Tango (fold over basal)",GPR176 [14],5.06
same,"Comment, DMR (AUC)",GPR176 [15],No response
